Data on three compounds can be found in PubChem BioAssay (NCI).

SMILES strings stand for the structures.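 A five-concentration, 48-hour dose response in 96-well plates underlies each endpoint, interpolated linearly between surrounding concentrations. TGI is the concentration that stops growth completely.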 A value given as a limit tells only on which side of the number the result lay.

Among the test systems are MCF7 breast; OVCAR-8 ovarian; HS 578T breast; MALME-3M melanoma; DU-145 prostate; SK-MEL-5 melanoma; HCC-2998 colon; COLO 205 colon; SK-OV-3 ovarian; NCI/ADR-RES ovarian; SK-MEL-28 melanoma.
Assay in all cases: NCI tumour cell line growth inhibition, 48 h

In the case of `COc1cc(OC)c2nc(C)c3c(c2c1)NCC3`, the TGI in the assay on MCF7 breast came out at 17.8 µM; in the assay with OVCAR-8 ovarian, 19 µM; with HS 578T breast, 15.1 µM; in the assay on MALME-3M melanoma it was 24 µM; in the assay with DU-145 prostate, 59 µM; with SK-MEL-5 melanoma it was 21.6 µM. The TGI in the assay on HCC-2998 colon came to 20.3 µM; in the assay on COLO 205 colon it was 17.1 µM; in the assay with SK-OV-3 ovarian, 49.6 µM; in the assay with NCI/ADR-RES ovarian, 71.2 µM; with SK-MEL-28 melanoma, 28.5 µM.
For `O=C(Nc1ccccc1)N(C1=NCC(CI)S1)c1ccc(F)cc1F` (stereo not drawn), the TGI with MCF7 breast, in the assay with OVCAR-8 ovarian, with HS 578T breast, in the assay on MALME-3M melanoma, in the assay with DU-145 prostate and with SK-MEL-5 melanoma was more than 100 µM each time. In addition, the TGI in the assay on HCC-2998 colon is more than 100 µM; in the assay on COLO 205 colon it was more than 100 µM; with SK-OV-3 ovarian, more than 100 µM; with NCI/ADR-RES ovarian, more than 100 µM; with SK-MEL-28 melanoma it was 83.4 µM.
For `CC1=C/C(=N\O)C(C(O)(C(F)(F)F)C(F)(F)F)C(C)(C)C1` (stereo not drawn), the TGI in the assay on MCF7 breast, with OVCAR-8 ovarian, in the assay on HS 578T breast, with MALME-3M melanoma, in the assay on DU-145 prostate and in the assay with SK-MEL-5 melanoma was more than 10 µM throughout. The TGI with HCC-2998 colon, in the assay with COLO 205 colon, in the assay with SK-OV-3 ovarian, with NCI/ADR-RES ovarian and with SK-MEL-28 melanoma was more than 10 µM each time.
